# Test results from PubChem BioAssay (NCI).
#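 48-hour exposure; five concentrations; linearly interpolated endpoints. GI50 = concentration required for 50% inhibition of growth. TGI is the concentration that stops growth completely.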
# What was measured:
# Experiment in all cases: growth of human tumour cells (NCI), 48 h
# [1] = system: 786-0 renal
# [2] = system: A549 NSCLC
# [3] = system: ACHN renal
# [4] = system: BT-549 breast
# [5] = system: CAKI-1 renal
# [6] = system: CCRF-CEM leukemia
# [7] = system: COLO 205 colon
# [8] = system: DU-145 prostate
# [9] = system: HCT-116 colon
# [10] = system: HCT-15 colon
# [11] = system: HL-60(TB) leukemia
# [12] = system: HOP-62 NSCLC
# [13] = system: HS 578T breast
# [14] = system: HT29 colon
# [15] = system: K-562 leukemia
# [16] = system: LOX IMVI melanoma
# [17] = system: M14 melanoma
# [18] = system: MALME-3M melanoma
# [19] = system: MCF7 breast
# [20] = system: MDA-MB-231 breast
# [21] = system: MDA-MB-435
# [22] = system: MOLT-4 leukemia
# [23] = system: NCI-H460 lung
# [24] = system: NCI-H522 lung
# [25] = system: NCI/ADR-RES ovarian
# [26] = system: OVCAR-4 ovarian
# [27] = system: OVCAR-5 ovarian
# [28] = system: OVCAR-8 ovarian
# [29] = system: PC-3 prostate
# [30] = system: RPMI-8226 leukemia
# [31] = system: RXF 393 renal
# [32] = system: SF-268 CNS
# [33] = system: SF-539 CNS
# [34] = system: SK-MEL-28 melanoma
# [35] = system: SK-MEL-5 melanoma
# [36] = system: SK-OV-3 ovarian
# [37] = system: SN12C renal
# [38] = system: SNB-19 CNS
# [39] = system: SNB-75 CNS
# [40] = system: SR leukemia
# [41] = system: SW-620 colon
# [42] = system: U251 CNS
# [43] = system: UACC-257 melanoma
# [44] = system: UACC-62 melanoma
# [45] = system: UO-31 renal
compound,measurement,setting,value
O=C1c2c(c3c4cc(Br)ccc4[nH]c3c3ccc4ccccc4c23)C(=O)N1CCN1CCCCC1,GI50,[1],1680 nM
same,TGI,[1],3100 nM
same,GI50,[2],1380 nM
same,TGI,[2],2740 nM
same,GI50,[3],783 nM
same,TGI,[3],2030 nM
same,GI50,[4],9500 nM
same,TGI,[4],> 100000 nM
same,GI50,[5],1290 nM
same,TGI,[5],2790 nM
same,GI50,[6],331 nM
same,TGI,[6],2180 nM
same,GI50,[7],1430 nM
same,TGI,[7],3150 nM
same,GI50,[8],1100 nM
same,TGI,[8],2480 nM
same,GI50,[9],1200 nM
same,TGI,[9],2520 nM
same,GI50,[10],1540 nM
same,TGI,[10],3520 nM
same,GI50,[11],1440 nM
same,TGI,[11],6100 nM
same,GI50,[12],689 nM
same,TGI,[12],2030 nM
same,GI50,[13],2040 nM
same,TGI,[13],4890 nM
same,GI50,[14],1230 nM
same,TGI,[14],2560 nM
same,GI50,[15],912 nM
same,TGI,[15],3300 nM
same,GI50,[16],1180 nM
same,TGI,[16],2660 nM
same,GI50,[17],1360 nM
same,TGI,[17],2810 nM
same,GI50,[18],1620 nM
same,TGI,[18],3110 nM
same,GI50,[19],178 nM
same,TGI,[19],1770 nM
same,GI50,[20],1570 nM
same,TGI,[20],3220 nM
same,GI50,[21],1610 nM
same,TGI,[21],3110 nM
same,GI50,[22],314 nM
same,TGI,[22],2530 nM
same,GI50,[23],390 nM
same,TGI,[23],1520 nM
same,GI50,[24],1230 nM
same,TGI,[24],2690 nM
same,GI50,[25],1280 nM
same,TGI,[25],3340 nM
same,GI50,[26],1800 nM
same,TGI,[26],3680 nM
same,GI50,[27],1850 nM
same,TGI,[27],3390 nM
same,GI50,[28],1210 nM
same,TGI,[28],2590 nM
same,GI50,[29],1470 nM
same,TGI,[29],2930 nM
same,GI50,[30],1630 nM
same,TGI,[30],3940 nM
same,GI50,[31],1480 nM
same,TGI,[31],2930 nM
same,GI50,[32],1440 nM
same,TGI,[32],4080 nM
same,GI50,[33],1570 nM
same,TGI,[33],3080 nM
same,GI50,[34],1770 nM
same,TGI,[34],3290 nM
same,GI50,[35],1770 nM
same,TGI,[35],3270 nM
same,GI50,[36],2660 nM
same,TGI,[36],> 100000 nM
same,GI50,[37],1440 nM
same,TGI,[37],3160 nM
same,GI50,[38],1720 nM
same,TGI,[38],> 100000 nM
same,GI50,[39],1520 nM
same,TGI,[39],3440 nM
same,GI50,[40],100 nM
same,TGI,[40],1840 nM
same,GI50,[41],1040 nM
same,TGI,[41],2390 nM
same,GI50,[42],884 nM
same,TGI,[42],2130 nM
same,GI50,[43],1690 nM
same,TGI,[43],3200 nM
same,GI50,[44],1970 nM
same,TGI,[44],7300 nM
same,GI50,[45],1500 nM
same,TGI,[45],3000 nM
